From US3973021A, “2-[2-(5-Nitro-2-furyl)vinyl]-4-(phydroxyanilino)quinazoline as a bactericide” (Diamond Shamrock Corporation, priority 1975, dated 1976)

Experiments:
Assay type in all cases: in vivo, broiler cross chicks
[1] = Example XI: 4 week chick feeding test, five replicates; details: Table V
Source text: (§1) This example compares growth promotion activity of the product of Example I with other growth promotants at a concentration of 25 g/T in the Basal Ration described in Example VII. The other growth promotants include the product described in Example I of U.S. Pat. No. 3,542,784 -- Burch and quinoxaline-1,4-dioxide. Day old broiler cross chicks were weight equalized into groups of 8 chicks each, and four replicates of 8 chicks each were fed the experimental rations over a 4 week period.
The growth promotion tests described in Example X were repeated with the exception that fives replicates of 8 chicks each were fed the formulations described in Table V for four weeks.

[2] = Example X: 4 week chick feeding test, 25 g/T; details: 25 g/T; Table IV
Source text: as §1

[3] = Example VII: 4 week chick feeding test, weight gain and feed efficiency; details: analysis of variance; over Basal Ration + Bacitracin
Source text: One hundred twenty day-old broiler cross chicks were weight equalized into 15 groups of 8 chicks each and placed in battery brooders. The 40 chick treatment groups (5 replicates) were fed the one of the three rations described below for a four week period. weekly measurements of body weights and feed consumption were made by replicate, and these measurements used to calculate weight gain and feed efficiency.
The commercial type broiler starter basal ration which was used in this study was designated as the Basal Ration, and had the following composition:
The preceding basal ration was mixed with bacitracin at a level of 4 g/T as the only growth stimulant to simulate commercial practice. This mixture was designated as the Basal Ration + Bacitracin (4 g/T) and constituted the negative control in this study.
A second ration was prepared by fortifying the Basal Ration + bacitracin described above with the Product from Example I above at a level of 200 g/T, and was designated as Basal Ration + Bacitracin + Product of Example I (200 g/T). A third ration was prepared by fortifying the Basal Ration + bacitracin described above with chlortetracycline (CTC) at a level of 200 g/T, and was designated as Basal Ration + Bacitracin + Chlortetracycline (200 g/T).
The term "growth promotion" is used herein to describe the beneficial effect of a compound in eliciting a more rapid of weight gain when compared to the weight gain of control animals not fed the compound. "Feed efficiency" is a term regularly used in animal husbandry and is a measure of the pounds of feed required to produce a pound of gain in the weight of the animal. A lower mathmatical value for feed efficiency reflects improved performance.

| Compound | feed efficiency (in words) [1] | growth rate (in words) [1] | growth rate and feed efficiency response (in words) [2] | statistical significance of improved feed efficiencies [3] | statistical significance of improved weight gains [3] |
| --- | --- | --- | --- | --- | --- |
| [O-][n+]1cc[n+]([O-])c2ccccc21 [Quinoxaline-1,4-dioxide, quinoxaline-1,4-dioxide] | improvement in feed efficiency | questionable effect on growth | did not have any apparent effect |  |  |
| CN(C)[C@@H]1C(O)=C(C(N)=O)C(=O)[C@@]2(O)C(O)=C3C(=O)c4c(O)ccc(Cl)c4[C@@](C)(O)[C@H]3C[C@@H]12 [Chlortetracycline, reference compound] | moderate improvements in feed efficiencies | slight improvements in growth rates |  | significant at the 99.9% level of probability | significant at the 99.5% level of probability |
